Reference: the NIST ThermoML archive (doi:10.1016/j.fluid.2016.02.011)

Experiment: refractive index (Na D-line) (dimensionless); xn = mol fraction of the nth substance listed
Settings: 100 kPa, Liquid, minimum deviations angle

Brc1ccccc1 [bromobenzene] + CCCCCC[n+]1ccn(C)c1.O=S(=O)([N-]S(=O)(=O)C(F)(F)F)C(F)(F)F
Settings | refractive index
282.96 K, x2 = 0.126 | 1.5213
282.97 K, x2 = 0.014 | 1.5558
282.97 K, x2 = 0.099 | 1.5287
283 K, x2 = 0 | 1.5612
283 K, x2 = 0.012 | 1.5566
283.05 K, x2 = 0.203 | 1.5043
284.39 K, x2 = 0.098 | 1.5279
284.4 K, x2 = 0 | 1.5605
284.53 K, x2 = 0.016 | 1.5545
284.53 K, x2 = 0.094 | 1.5291
284.67 K, x2 = 0.012 | 1.5558
284.89 K, x2 = 0.126 | 1.5204
285.06 K, x2 = 0.203 | 1.5035
285.53 K, x2 = 0.098 | 1.5273
285.73 K, x2 = 0.017 | 1.5534
285.73 K, x2 = 0.091 | 1.5294
285.75 K, x2 = 0 | 1.5598
286.57 K, x2 = 0.012 | 1.5548
286.96 K, x2 = 0 | 1.5591
286.98 K, x2 = 0.126 | 1.5195
287.01 K, x2 = 0.203 | 1.5027
287.53 K, x2 = 0.019 | 1.5516
287.53 K, x2 = 0.086 | 1.53
287.59 K, x2 = 0.098 | 1.5264
287.98 K, x2 = 0 | 1.5585
288.27 K, x2 = 0.012 | 1.5539
288.42 K, x2 = 0.021 | 1.5506
288.42 K, x2 = 0.083 | 1.5304
288.67 K, x2 = 0.085 | 1.5295
288.99 K, x2 = 0 | 1.558
289.12 K, x2 = 0.126 | 1.5186
289.13 K, x2 = 0.022 | 1.5497
289.13 K, x2 = 0.08 | 1.5307
289.18 K, x2 = 0.203 | 1.5018
289.79 K, x2 = 0.085 | 1.529
289.81 K, x2 = 0.098 | 1.5254
289.82 K, x2 = 0.024 | 1.5487
289.82 K, x2 = 0.077 | 1.5313
290.11 K, x2 = 0 | 1.5574
290.23 K, x2 = 0.012 | 1.5529
290.33 K, x2 = 0.026 | 1.5478
290.33 K, x2 = 0.074 | 1.5318
290.81 K, x2 = 0.085 | 1.5286
290.82 K, x2 = 0.027 | 1.547
290.82 K, x2 = 0.072 | 1.5324
290.87 K, x2 = 0.026 | 1.5473
291.09 K, x2 = 0.203 | 1.501
291.14 K, x2 = 0.126 | 1.5177
291.16 K, x2 = 0.029 | 1.5462
291.16 K, x2 = 0.069 | 1.533
291.22 K, x2 = 0 | 1.5568
291.34 K, x2 = 0.012 | 1.5524
291.44 K, x2 = 0.03 | 1.5456
291.44 K, x2 = 0.067 | 1.5336
291.49 K, x2 = 0.075 | 1.5311
291.54 K, x2 = 0.031 | 1.5453
291.54 K, x2 = 0.066 | 1.5338
291.64 K, x2 = 0.031 | 1.5451
291.64 K, x2 = 0.065 | 1.5341
291.71 K, x2 = 0.098 | 1.5245
291.74 K, x2 = 0.032 | 1.5448
291.74 K, x2 = 0.064 | 1.5343
291.83 K, x2 = 0.033 | 1.5445
291.83 K, x2 = 0.063 | 1.5346
291.91 K, x2 = 0.033 | 1.5442
291.91 K, x2 = 0.062 | 1.5349
291.98 K, x2 = 0.034 | 1.5439
291.98 K, x2 = 0.061 | 1.5351
292.03 K, x2 = 0.026 | 1.5467
292.04 K, x2 = 0.035 | 1.5436
292.04 K, x2 = 0.06 | 1.5354
292.08 K, x2 = 0.036 | 1.5433
292.08 K, x2 = 0.059 | 1.5356
292.14 K, x2 = 0.085 | 1.5279
292.15 K, x2 = 0.037 | 1.5428
292.15 K, x2 = 0.058 | 1.536
292.21 K, x2 = 0.038 | 1.5424
292.21 K, x2 = 0.056 | 1.5365
292.21 K, x2 = 0.075 | 1.5307
292.21 K, x2 = 0.126 | 1.5172
292.22 K, x2 = 0.203 | 1.5005
292.24 K, x2 = 0.039 | 1.5421
292.24 K, x2 = 0.055 | 1.5368
292.25 K, x2 = 0.039 | 1.5419
292.25 K, x2 = 0.055 | 1.5369
292.26 K, x2 = 0.04 | 1.5416
292.26 K, x2 = 0.054 | 1.5371
292.27 K, x2 = 0.041 | 1.5414
292.27 K, x2 = 0.053 | 1.5373
292.29 K, x2 = 0.042 | 1.541
292.29 K, x2 = 0.052 | 1.5378
292.3 K, x2 = 0.012 | 1.5518
292.3 K, x2 = 0.043 | 1.5407
292.3 K, x2 = 0.051 | 1.538
292.32 K, x2 = 0 | 1.5563
293.01 K, x2 = 0.085 | 1.5276
293.1 K, x2 = 0.026 | 1.5461
293.22 K, x2 = 0.126 | 1.5167
293.22 K, x2 = 0.203 | 1.5001
293.32 K, x2 = 0 | 1.5557
293.35 K, x2 = 0.041 | 1.5407
293.35 K, x2 = 0.06 | 1.5348
293.39 K, x2 = 0.012 | 1.5513
293.5 K, x2 = 0.075 | 1.5301
293.74 K, x2 = 0.098 | 1.5236
293.93 K, x2 = 0.085 | 1.5271
294.22 K, x2 = 0.026 | 1.5456
294.45 K, x2 = 0.041 | 1.5401
294.49 K, x2 = 0.06 | 1.5343
294.54 K, x2 = 0.075 | 1.5296
295.1 K, x2 = 0.085 | 1.5266
295.1 K, x2 = 0.098 | 1.523
295.32 K, x2 = 0.026 | 1.545
295.66 K, x2 = 0.06 | 1.5337
295.82 K, x2 = 0.041 | 1.5394
295.84 K, x2 = 0.075 | 1.529
296.86 K, x2 = 0.06 | 1.5331
297.11 K, x2 = 0.041 | 1.5388
297.16 K, x2 = 0.075 | 1.5284
297.94 K, x2 = 0.06 | 1.5325
298.49 K, x2 = 0.041 | 1.5381
298.64 K, x2 = 0.026 | 1.5433
298.7 K, x2 = 0.075 | 1.5277
299.03 K, x2 = 0.06 | 1.532
299.63 K, x2 = 0.041 | 1.5375
299.98 K, x2 = 0.06 | 1.5315
300.84 K, x2 = 0.041 | 1.5369
